Assay results taken from patent US9382228B2 (priority 2013, dated 2016).

Legend:
M-NFS-60 cells = assay: cells; conditions: 67 h, read-out: M-NFS-60 cell proliferation
Experimental: M-NFS-6 Cell Proliferation Assay
A serial dilution of test compound was dispensed into a 384-well black clear bottom plate (Corning, Corning, N.Y.). Two thousand five hundred cells were added per well in 50 μL complete growth medium. […] IC50 values were calculated from a series of percent inhibition values determined at a range of inhibitor concentrations using software routines as implemented in the GraphPad Prism software package.

[1] = test system: phospho-FMS in THP-1 cells; assay: cells; conditions: Homo sapiens, THP-1, read-out: pFMS inhibition in THP-1 cells
Experimental: In a separate 96 well black clear bottom plate, one hundred and fifty thousand THP-1 cells were added per well in 100 μL in assay medium. Fifty microliters of diluted compound was then added to the cells. […] Lysates were prepared and used to perform the phospho-FMS ELISA as described by the manufacturer (catalog #DYC3268, R & D Systems, Minneapolis, Minn.). GraphPad Prism was used to calculate IC50 values obtained from data generated from the ELISA assay.

[2] = biological target: unphosphorylated c-KIT kinase (uKIT, Seq. ID no. 2) (Homo sapiens, UniProt P10721); assay: biochemical
Experimental: uKit kinase (Seq. ID No. 2) Assay
In this assay, the oxidation of NADH (thus the decrease at A340 nm) was continuously monitored spectrophometrically. […] The inhibition reaction was started by mixing serial diluted test compound with the above reaction mixture. The absorption at 340 nm was monitored continuously for 4 hours at 30° C. on Synergy 2 plate reader (BioTech).

[3] = biological target: T1, unphosphorylated c-FMS kinase (uFMS, Seq. ID no. 1) (Homo sapiens, UniProt P07333); assay: biochemical
T1 sequence (P07333 538-972): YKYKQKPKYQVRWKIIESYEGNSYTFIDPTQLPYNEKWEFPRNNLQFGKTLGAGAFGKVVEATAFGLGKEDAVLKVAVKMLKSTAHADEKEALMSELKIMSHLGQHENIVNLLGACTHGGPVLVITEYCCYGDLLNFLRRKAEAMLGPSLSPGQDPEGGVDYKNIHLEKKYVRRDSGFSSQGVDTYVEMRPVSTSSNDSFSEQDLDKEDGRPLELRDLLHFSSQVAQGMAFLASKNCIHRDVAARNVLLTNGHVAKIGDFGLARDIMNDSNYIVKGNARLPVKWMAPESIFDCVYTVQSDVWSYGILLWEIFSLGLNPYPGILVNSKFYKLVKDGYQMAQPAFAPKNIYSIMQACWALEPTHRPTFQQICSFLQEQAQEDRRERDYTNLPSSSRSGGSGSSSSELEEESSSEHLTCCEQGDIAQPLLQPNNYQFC

osteoclast precursors = assay: cells; assay type: cell-based; conditions: read-out: Osteoclast assay
[4] = biological target: unphosphorylated PDGFRβ kinase (uPDGFRβ, Seq. ID No. 3) (Homo sapiens, UniProt P09619); assay: biochemical
Chain of unphosphorylated PDGFRβ kinase (uPDGFRβ, Seq. ID No. 3) (P09619 557-1106): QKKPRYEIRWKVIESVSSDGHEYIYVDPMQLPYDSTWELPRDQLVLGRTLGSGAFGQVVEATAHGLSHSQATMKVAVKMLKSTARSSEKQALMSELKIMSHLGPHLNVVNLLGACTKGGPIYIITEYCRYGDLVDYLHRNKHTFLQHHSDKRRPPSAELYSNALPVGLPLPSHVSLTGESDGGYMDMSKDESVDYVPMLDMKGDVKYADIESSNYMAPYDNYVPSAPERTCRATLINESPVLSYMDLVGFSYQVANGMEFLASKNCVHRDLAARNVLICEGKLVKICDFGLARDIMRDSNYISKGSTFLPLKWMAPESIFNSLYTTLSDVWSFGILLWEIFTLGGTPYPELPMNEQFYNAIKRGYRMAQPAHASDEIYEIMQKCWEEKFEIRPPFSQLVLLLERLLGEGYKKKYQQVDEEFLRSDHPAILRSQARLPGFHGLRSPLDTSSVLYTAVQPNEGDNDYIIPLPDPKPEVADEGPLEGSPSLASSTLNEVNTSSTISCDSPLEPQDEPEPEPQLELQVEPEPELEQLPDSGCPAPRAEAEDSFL
Experimental: Unphosphorylated PDGFRβ (uPDGFRβ) Kinase (Seq. ID No. 3) Assay
In this assay, the oxidation of NADH (thus the decrease at A340 nm) was continuously monitored spectrophometrically. […] The inhibition reaction was started by mixing serial diluted test compound with the above reaction mixture. The absorption at 340 nm was monitored continuously for 4 h at 30° C. on a Polarstar Optima or Synergy 2 plate reader. The reaction rate was calculated using the 1.5 to 2.5 h time frame. Percent inhibition was obtained by comparison of reaction rate with that of a control (i.e. with no test compound). IC50 values were calculated from a series of percent inhibition values determined at a range of inhibitor concentrations using software routines as implemented in the GraphPad Prism software package.

[5] = uKIT, enzymatic assay, ATP 2000 μM
[6] = uFMS, enzymatic assay, ATP 500 μM
[7] = uPDGFRb, enzymatic assay, ATP 500 μM

Chain of unphosphorylated c-KIT kinase (uKIT, Seq. ID no. 2) (P10721 with tags, fused parts or gaps): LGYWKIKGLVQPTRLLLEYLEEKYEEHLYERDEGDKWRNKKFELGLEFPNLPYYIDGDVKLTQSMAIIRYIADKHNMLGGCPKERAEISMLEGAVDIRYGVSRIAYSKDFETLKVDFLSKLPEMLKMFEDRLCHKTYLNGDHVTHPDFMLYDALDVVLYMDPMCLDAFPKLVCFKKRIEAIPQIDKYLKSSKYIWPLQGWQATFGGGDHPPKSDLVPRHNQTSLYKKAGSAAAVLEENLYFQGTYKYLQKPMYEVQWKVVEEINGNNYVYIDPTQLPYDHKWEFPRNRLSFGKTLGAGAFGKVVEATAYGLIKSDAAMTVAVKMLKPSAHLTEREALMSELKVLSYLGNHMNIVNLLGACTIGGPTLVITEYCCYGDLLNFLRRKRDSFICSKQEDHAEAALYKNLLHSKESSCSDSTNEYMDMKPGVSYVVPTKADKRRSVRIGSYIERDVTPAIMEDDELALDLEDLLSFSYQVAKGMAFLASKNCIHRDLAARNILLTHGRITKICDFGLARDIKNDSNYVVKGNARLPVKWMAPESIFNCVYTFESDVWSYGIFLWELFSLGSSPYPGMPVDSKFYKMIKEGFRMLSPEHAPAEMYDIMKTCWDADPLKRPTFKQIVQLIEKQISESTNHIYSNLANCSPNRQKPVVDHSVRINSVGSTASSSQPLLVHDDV

Structure (SMILES) | IC50 [1] [nM] | IC50 [2, 5] [nM] | IC50 [3, 6] [nM] | IC50 (osteoclast precursors) [nM] | IC50 [4, 7] [nM] | IC50 ([2]; IC50 (nM) uKIT, Table 3) [nM] | IC50 ([3]; IC50 (nM) uFMS, Table 3) [nM] | IC50 ([4]; IC50 (nM) uPDGFRβ, Table 3) [nM] | IC50 (M-NFS-60 cells) [nM]
Cc1nc(NC(=O)NC(=O)CCC2(C(F)(F)F)CC2)ccc1Oc1ccnc(-c2cnn(C)c2)c1 [Example 11, N-((6-methyl-5-((2-(1-methyl-1H-pyrazol-4-yl)pyridin-4-yl)oxy)pyridin-2-yl)carbamoyl)-3-(1-(trifluoromethyl)cyclopropyl)propanamide] | 10 to 100 | < 10 | < 10 | < 10 | 10 to 100 |  |  |  | < 10
CC(C)(C)C(=O)NC(=O)Nc1ccc(Oc2ccnc(-c3cncs3)c2)cn1 [Example 125, N-((5-((2-(thiazol-5-yl)pyridin-4-yl)oxy)pyridin-2-yl)carbamoyl)pivalamide] | 10 to 100 | > 1000 | < 10 | < 10 | > 1000 |  |  |  | 100 to 1000
COC(C)(C)C(=O)NC(=O)Nc1ccc(Oc2ccnc(-c3ccnc(C)c3)c2)cn1 [Example 160, 2-methoxy-2-methyl-N-((5-((2′-methyl-[2,4′-bipyridin]-4-yl)oxy)pyridin-2-yl)carbamoyl)propanamide] | < 10 | > 1000 | < 10 | 10 to 100 | > 1000 |  |  |  | < 10
Cc1cc(NC(=O)NC(=O)C(C)(C)C)ncc1Oc1ccnc(-c2cnn(C)c2)c1 [Example 84, N-((4-methyl-5-((2-(1-methyl-1H-pyrazol-4-yl)pyridin-4-yl)oxy)pyridin-2-yl)carbamoyl)pivalamide] | < 10 | 100 to 1000 | < 10 | < 10 | 100 to 1000 |  |  |  | < 10

Second part, led by results:

IC50 [1] [nM] | IC50 [2, 5] [nM] | IC50 [3, 6] [nM] | IC50 (osteoclast precursors) [nM] | IC50 [4, 7] [nM] | IC50 ([2]; IC50 (nM) uKIT, Table 3) [nM] | IC50 ([3]; IC50 (nM) uFMS, Table 3) [nM] | IC50 ([4]; IC50 (nM) uPDGFRβ, Table 3) [nM] | Structure (SMILES) | IC50 (M-NFS-60 cells) [nM]
< 10 | 10 to 100 | < 10 | 10 to 100 | 100 to 1000 |  |  |  | COC(C)(C)C(=O)NC(=O)Nc1cc(C)c(Oc2ccnc(-c3cnn(C)c3)c2)c(C)n1 [Example 140, N-((4,6-dimethyl-5-((2-(1-methyl-1H-pyrazol-4-yl)pyridin-4-yl)oxy)pyridin-2-yl)carbamoyl)-2-methoxy-2-methylpropanamide] | < 10
< 10 | < 10 | < 10 | < 10 | 10 to 100 |  |  |  | Cn1cc(-c2cc(Oc3ccc(NC(=O)NC(=O)C4CC(C)(C)C4)nc3)ccn2)cn1 [Example 2, 3,3-dimethyl-N-((5-((2-(1-methyl-1H-pyrazol-4-yl)pyridin-4-yl)oxy)pyridin-2-yl)carbamoyl)cyclobutanecarboxamide] | < 10
< 10 | > 1000 | < 10 | 10 to 100 | > 1000 |  |  |  | Cc1nc(NC(=O)NC(=O)C(C)(C)C)ccc1Oc1ccnc(-c2cncs2)c1 [Example 131, N-((6-methyl-5-((2-(thiazol-5-yl)pyridin-4-yl)oxy)pyridin-2-yl)carbamoyl)pivalamide] | 10 to 100
< 10 | > 1000 | < 10 | 10 to 100 | 100 to 1000 | 4000 | 4 | 366 | Cc1cn(-c2cc(Oc3ccc(NC(=O)NC(=O)C(C)(C)C)nc3)ccn2)cn1 [Example 99, N-((5-((2-(4-methyl-1H-imidazol-1-yl)pyridin-4-yl)oxy)pyridin-2-yl)carbamoyl)pivalamide] | 10 to 100
< 10 | > 1000 | 10 to 100 | 10 to 100 | > 1000 |  |  |  | COC(C)(C)C(=O)NC(=O)Nc1ccc(Oc2ccnc(-n3cnc(C)c3)c2)cn1 [Example 130, 2-methoxy-2-methyl-N-((5-((2-(4-methyl-1H-imidazol-1-yl)pyridin-4-yl)oxy)pyridin-2-yl)carbamoyl)propanamide] | 10 to 100
